Holding throughout (assay type): functional
For one assay, the system named is Spodoptera exigua. The experiment in a line: Antifeedant activity against Spodoptera exigua final stadium […] at 100 ppm by glass-fiber choice assay.
A further assay has as its system Locusta migratoria. The assay is described as follows: Antifeedant activity against Locusta migratoria final stadium nymphs at 100 ppm by glass-fiber choice assay.
The subject of the next assay is Heliothis virescens. The assay is described as follows: Antifeedant activity against Heliothis virescens (tobacco budworm) final stadium […] at 100 ppm by glass-fiber choice assay.

In the case of `COc1cc2oc(-c3ccc(O)cc3)cc(=O)c2c(O)c1C` [8-DEMETHYLSIDEROXYLIN], the AFI in the assay with Spodoptera exigua turned out to be 8.9%; with Locusta migratoria it was 1.9%; in the assay with Heliothis virescens it was 7.3%.

For the molecule `COc1c(C)c(O)c2c(=O)cc(-c3ccc(O)cc3)oc2c1C` [SIDEROXYLIN], the AFI was found to be 21.2% in the assay with Spodoptera exigua, 24.2% in the assay on Locusta migratoria and 19.6% in the assay with Heliothis virescens.

`COc1cc(/C=C/C=O)ccc1O` [CONIFERYL ALDEHYDE]: the AFI is 4% with Spodoptera exigua, 4.5% in the assay with Locusta migratoria and 2.2% in the assay on Heliothis virescens.

The values above are taken from ChEMBL document CHEMBL3045752, “Sideroxylin and 8-demethylsideroxylin from Eucalyptus saligna (Myrtaceae)” (2001).
